Laboratory results as given in patent US9840513B2 (AbbVie S.à.r.l., priority 2015, dated 2017).

Key:
[1] = molecular target: T1, F508delCFTR cell surface expression in CFBE41o-F508delCFTR-HRP cells (Homo sapiens, UniProt P13569, DEL508-508); assay: Cell Surface Expression-Horse Radish Peroxidase (CSE-HRP) Assay; format: cell-based; conditions: for EC50: CFBE41o-F508delCFTR-HRP cells, 18-24 hours at 33° C., 8-point curve, highest concentration 20 μM; for Maximum % activity (%): maximum at any tested concentration, normalized to on-plate positive control (3 μM)
T1 construct: fused on or other part: Horseradish peroxidase (HRP) reporter inserted in the fourth exofacial (extracellular) loop of CFTR; expression is doxycycline-inducible
T1 sequence (P13569 with tags, fused parts or gaps DEL508-508 limits assumed): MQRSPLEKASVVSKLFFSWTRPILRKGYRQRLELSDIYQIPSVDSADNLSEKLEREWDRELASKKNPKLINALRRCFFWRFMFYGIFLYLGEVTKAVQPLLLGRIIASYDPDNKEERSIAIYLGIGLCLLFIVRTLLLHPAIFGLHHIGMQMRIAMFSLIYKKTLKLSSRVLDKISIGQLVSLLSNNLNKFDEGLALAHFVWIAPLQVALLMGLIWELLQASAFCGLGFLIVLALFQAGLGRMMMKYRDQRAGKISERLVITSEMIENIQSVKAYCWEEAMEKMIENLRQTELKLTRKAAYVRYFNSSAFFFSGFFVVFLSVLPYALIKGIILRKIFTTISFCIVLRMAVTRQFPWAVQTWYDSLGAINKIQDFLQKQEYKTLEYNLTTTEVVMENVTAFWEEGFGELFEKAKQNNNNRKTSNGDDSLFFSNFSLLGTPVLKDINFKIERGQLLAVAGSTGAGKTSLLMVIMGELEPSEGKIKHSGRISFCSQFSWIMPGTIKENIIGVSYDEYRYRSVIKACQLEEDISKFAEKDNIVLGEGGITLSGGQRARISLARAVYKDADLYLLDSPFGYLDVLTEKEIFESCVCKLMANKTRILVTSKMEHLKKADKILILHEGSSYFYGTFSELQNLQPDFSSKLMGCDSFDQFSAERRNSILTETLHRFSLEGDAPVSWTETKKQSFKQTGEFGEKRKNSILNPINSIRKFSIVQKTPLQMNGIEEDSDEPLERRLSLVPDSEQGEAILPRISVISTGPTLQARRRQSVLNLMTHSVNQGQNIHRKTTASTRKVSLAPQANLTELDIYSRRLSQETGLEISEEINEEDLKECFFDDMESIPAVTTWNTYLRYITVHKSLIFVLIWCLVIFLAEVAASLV
T1 sequence (P13569 919-1480 limits assumed, stated change not applied): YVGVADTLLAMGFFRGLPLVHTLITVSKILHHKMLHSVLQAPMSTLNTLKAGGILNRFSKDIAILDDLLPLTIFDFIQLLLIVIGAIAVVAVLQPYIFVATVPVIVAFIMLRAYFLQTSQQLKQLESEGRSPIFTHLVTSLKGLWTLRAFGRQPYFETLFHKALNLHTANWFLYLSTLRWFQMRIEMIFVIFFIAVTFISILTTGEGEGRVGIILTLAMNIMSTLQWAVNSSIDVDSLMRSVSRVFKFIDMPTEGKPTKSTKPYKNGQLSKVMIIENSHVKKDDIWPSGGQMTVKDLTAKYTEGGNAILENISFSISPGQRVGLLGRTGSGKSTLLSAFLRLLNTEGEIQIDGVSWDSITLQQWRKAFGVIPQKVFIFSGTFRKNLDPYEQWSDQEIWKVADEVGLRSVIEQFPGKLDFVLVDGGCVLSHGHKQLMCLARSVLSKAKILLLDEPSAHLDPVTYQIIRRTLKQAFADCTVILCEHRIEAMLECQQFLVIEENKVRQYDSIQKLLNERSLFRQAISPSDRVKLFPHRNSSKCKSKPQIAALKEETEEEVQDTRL
In short: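 CFBE41o- cells with HRP-tagged F508delCFTR, expression induced by 0.5 μg/mL doxycycline for 72 h at 37 °C, then compound for 18-24 h at 33 °C (8-point, 3-fold, top 20 μM). Surface HRP measured by luminol luminescence; % activity normalised to 3 μM positive-control corrector; EC50 from variable-slope sigmoidal fit, three replicate plates.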

[2] = molecular target: T2, F508delCFTR in primary hBE cells with F508del/F508del CFTR mutation (Homo sapiens, UniProt P13569, DEL508-508); assay: Transepithelial Clamp Circuit on Human Bronchial Epithelial Cells Conductance Assay (hBE-TECC); format: cell-based; conditions: for EC50: primary hBE cells F508del/F508del, 18-24 hours at 37° C., equivalent short circuit current, 6 concentrations
T2 construct: cells isolated from CF patients with the homozygous mutation; endogenous in cells; host or cells: primary human bronchial epithelial (hBE) cells from F508del/F508del CF patients
T2 sequence (P13569 with tags, fused parts or gaps DEL508-508): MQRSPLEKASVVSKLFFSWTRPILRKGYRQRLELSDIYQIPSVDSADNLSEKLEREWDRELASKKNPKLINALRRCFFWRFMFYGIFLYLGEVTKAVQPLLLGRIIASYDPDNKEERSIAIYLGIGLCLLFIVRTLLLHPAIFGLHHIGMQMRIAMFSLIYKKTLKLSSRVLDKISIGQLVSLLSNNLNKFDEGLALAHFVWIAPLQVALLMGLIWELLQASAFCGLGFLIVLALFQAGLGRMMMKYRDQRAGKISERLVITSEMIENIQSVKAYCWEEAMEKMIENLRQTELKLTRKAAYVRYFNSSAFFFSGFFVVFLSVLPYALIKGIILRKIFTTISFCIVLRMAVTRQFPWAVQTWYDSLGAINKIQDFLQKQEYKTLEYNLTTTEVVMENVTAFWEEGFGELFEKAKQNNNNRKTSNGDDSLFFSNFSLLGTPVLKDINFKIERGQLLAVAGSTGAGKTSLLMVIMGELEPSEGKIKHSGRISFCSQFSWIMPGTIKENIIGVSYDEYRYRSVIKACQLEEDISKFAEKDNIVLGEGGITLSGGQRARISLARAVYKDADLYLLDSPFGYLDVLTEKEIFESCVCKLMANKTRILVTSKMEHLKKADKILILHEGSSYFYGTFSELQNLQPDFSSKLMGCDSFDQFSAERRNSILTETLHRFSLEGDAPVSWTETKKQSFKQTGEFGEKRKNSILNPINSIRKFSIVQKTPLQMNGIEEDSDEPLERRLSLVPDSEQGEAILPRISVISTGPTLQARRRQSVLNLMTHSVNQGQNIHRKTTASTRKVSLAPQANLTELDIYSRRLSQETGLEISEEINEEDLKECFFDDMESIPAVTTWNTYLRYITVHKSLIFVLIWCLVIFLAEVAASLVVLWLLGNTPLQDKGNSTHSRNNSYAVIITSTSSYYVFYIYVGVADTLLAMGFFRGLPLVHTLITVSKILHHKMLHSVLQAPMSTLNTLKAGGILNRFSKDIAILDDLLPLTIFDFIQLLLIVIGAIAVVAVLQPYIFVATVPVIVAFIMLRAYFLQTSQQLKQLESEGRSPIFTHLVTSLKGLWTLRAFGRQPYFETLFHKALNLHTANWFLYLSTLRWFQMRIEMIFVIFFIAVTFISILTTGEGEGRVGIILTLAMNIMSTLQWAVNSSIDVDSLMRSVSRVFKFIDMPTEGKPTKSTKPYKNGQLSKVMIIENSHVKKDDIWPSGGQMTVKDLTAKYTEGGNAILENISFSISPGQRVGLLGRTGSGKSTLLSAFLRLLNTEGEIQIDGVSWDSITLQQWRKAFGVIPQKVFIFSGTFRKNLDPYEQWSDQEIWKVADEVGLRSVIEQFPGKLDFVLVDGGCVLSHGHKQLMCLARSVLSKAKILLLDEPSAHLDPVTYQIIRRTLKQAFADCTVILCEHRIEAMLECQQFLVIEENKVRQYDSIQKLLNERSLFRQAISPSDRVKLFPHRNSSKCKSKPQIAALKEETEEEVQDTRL
Text: Transepithelial Clamp Circuit on Human Bronchial Epithelial Cells Conductance Assay:
A cell based assay using the primary human bronchial epithelial cells (hBE) was used as a secondary assay to test novel F508delCFTR correctors for their activity on primary hBE cells with F508del/F508del CFTR mutation. The assay used a TECC-24 (Transepithelial Clamp Circuit for 24 wells) instrument that measures the functionality of the mutated channel by measuring the equivalent short circuit current (Ieq) generated by the polarized epithelial cells. The instrument works by measuring the transepithelial potential difference (Vt) and transepithelial resistance (Rt) in an open circuit format, and the Ieq is calculated by using Ohms law (Ieq=Vt/Rt). The assay was run in a 24-well format and all 24-wells were measured at the same time point giving a higher throughput for this assay.
Primary human bronchial epithelial (hBE) cells from F508del/F508delCFTR patients were expanded from 1×10^6 to 250×10^6 cells (Neuberger T, Burton B, Clark H and VanGoor F; Cystic Fibrosis, Methods in Mole Biol 741; eds. Amaral M D and Kunzelmann K, 2011). For this purpose, cells isolated from CF patients with the homozygous mutation were seeded onto 24 well Corning (Cat #3378) filter plates that were coated with 3T3 conditioned media and grown at an air-liquid interface for 35 days using an Ultroser® G supplemented differentiation media. Apical surface mucus was removed 72 hours before the experiment using 3 mM dithiothreitol (DTT) in phosphate buffered saline (PBS). The apical surface was washed again 24 hours before the experiment using PBS. The cells were incubated with the desired dose response of the corrector compounds 18-24 hours at 37° C., 5% CO2. The corrector compounds are only added on the basolateral side of the epithelial cells.
On the day of measuring the corrector activity on the TECC, the cells were switched into a bicarbonate and serum free F-12 Coon's medium and allowed to equilibrate for 90 minutes in a CO2 free incubator. At the time of measurement, the apical and basolateral sides of the filter were bathed with the F-12 Coon's modification media (with 20 mM 4-(2-hydroxyethyl)-1-piperazineethanesulfonic acid (HEPES), pH 7.4 (using 1 M tris(hydroxymethyl)aminomethane (Tris)), and the measurements were made at 36.5° C. Transepithelial voltage (Vt) and transepithelial resistance (Rt) were measured using a 24 channel transepithelial current clamp (TECC-24). Current responses to the sequential addition of benzamil (apical 6 μM addition; for inhibiting epithelial ENaC channel), forskolin (apical and basolateral 10 μM addition; for activating the CFTR channel), control potentiator (N-(3-carbamoyl-5,5,7,7-tetramethyl-4,7-dihydro-5H-thieno[2,3-c]pyran-2-yl)-1H-pyrazole-5-carboxamide; apical and basolateral […] addition; for potentiating the CFTR channel) and bumetanide (basolateral 20 μM addition; for inhibiting the Na:2Cl:K co-transporter, an indirect measure of inhibiting the Cl-secretion driven by CFTR channel) were measured.
All plates contained negative controls (dimethyl sulfoxide, DMSO) which coupled with the control potentiator (N-(3-carbamoyl-5,5,7,7-tetramethyl-4,7-dihydro-5H-thieno[2,3-c]pyran-2-yl)-1H-pyrazole-5-carboxamide) sets the null response and positive controls (3 μM of 3-[(2R,4R)-4-({[1-(2,2-difluoro-1,3-benzodioxol-5-yl)cyclopropyl]carbonyl}amino)-7-methoxy-3,4-dihydro-2H-chromen-2-yl]benzoic acid) coupled with the control potentiator sets the 100% response to measure the correction of the mutated CFTR channel. The maximum percent activity is reported relative to the positive control value.
The % activity measured at each of the 6 test concentrations of the test compound was normalized to the on-plate positive control using the following formula: % activity=[[…]]*100 […]

[3] = relative to positive control (3 μM) coupled with control potentiator

| SMILES | EC50 [1] [nM] | Maximum % activity (%) [1] [%] | EC50 [2] [nM] | Maximum % activity (%) [2, 3] [%] | Maximum % activity (%) ([2]; testing concentration 3 μM) | Maximum % activity (%) ([2]; testing concentration 1 μM) | Maximum % activity (%) ([2]; testing concentration 10 μM) |
| --- | --- | --- | --- | --- | --- | --- | --- |
| COc1ccc2c(c1)O[C@@H](c1ccc(CO)nc1)C[C@H]2NC(=O)[C@@]1(C)COc2cc3c(cc21)OC(F)(F)O3 [Example 178, (7R)-2,2-difluoro-N-{(2R,4R)-2-[6-(hydroxymethyl)pyridin-3-yl]-7-methoxy-3,4-dihydro-2H-1-benzopyran-4-yl}-7-methyl-6,7-dihydro-2H-furo[2,3-f][1,3]benzodioxole-7-carboxamide] | 290 | 158 | 66 | 108 |  |  |  |
| COc1ccc2c(c1)O[C@@H](c1ccc(C(=O)O)cc1)C[C@H]2NC(=O)C1(C)COc2c1ccc1c2OC(F)(F)O1 (stereo partly drawn) [Example 39, 4-{(2R,4R)-4-[(2,2-difluoro-6-methyl-6,7-dihydro-2H-furo[2,3-e][1,3]benzodioxole-6-carbonyl)amino]-7-methoxy-3,4-dihydro-2H-1-benzopyran-2-yl}benzoic acid] | 1260 | 106 |  |  | 47 |  |  |
| C[C@]1(C(=O)N[C@@H]2C[C@H]([C@H]3CC[C@H](C(=O)NCC(O)CO)CC3)Oc3cc(OC(F)(F)F)ccc32)COc2cc3c(cc21)OC(F)(F)O3 (stereo partly drawn) [Example 260, (7R)—N-[(2R,4R)-2-{trans-4-[(2,3-dihydroxypropyl)carbamoyl]cyclohexyl}-7-(trifluoromethoxy)-3,4-dihydro-2H-1-benzopyran-4-yl]-2,2-difluoro-7-methyl-6,7-dihydro-2H-furo[2,3-f][1,3]benzodioxole-7-carboxamide] | 130 | 174 | 69 | 129 |  |  |  |
| C[C@]1(C(=O)N[C@@H]2C[C@H]([C@H]3CC[C@H](C(=O)O)CC3)Oc3cc(OC(F)(F)F)ccc32)CCc2cc3c(cc21)OC(F)(F)O3 [Example 167, trans-4-[(2R,4R)-4-{[(5S)-2,2-difluoro-5-methyl-6,7-dihydro-2H,5H-indeno[5,6-d][1,3]dioxole-5-carbonyl]amino}-7-(trifluoromethoxy)-3,4-dihydro-2H-1-benzopyran-2-yl]cyclohexane-1-carboxylic acid] | 53 | 135 | 87 | 112 |  |  |  |
| C[C@]1(C(=O)Nc2cccc(N3CC[C@H](C(=O)O)C3)n2)COc2cc3c(cc21)OC(F)(F)O3 [Example 90, (3S)-1-(6-{[(7R)-2,2-difluoro-7-methyl-6,7-dihydro-2H-furo[2,3-f][1,3]benzodioxole-7-carbonyl]amino}pyridin-2-yl)pyrrolidine-3-carboxylic acid] | 620 | 127 |  |  |  | 65 |  |
| COc1ccc2c(c1)O[C@@H](c1ccc(C(=O)N3CCN(CCO)CC3)cn1)C[C@H]2NC(=O)[C@@]1(C)COc2cc3c(cc21)OC(F)(F)O3 [Example 213, (7R)-2,2-difluoro-N-[(2R,4R)-2-{5-[4-(2-hydroxyethyl)piperazine-1-carbonyl]pyridin-2-yl}-7-methoxy-3,4-dihydro-2H-1-benzopyran-4-yl]-7-methyl-6,7-dihydro-2H-furo[2,3-f][1,3]benzodioxole-7-carboxamide] | 80 | 117 | 41 | 82 |  |  |  |
| C[C@]1(C(=O)N[C@@H]2C[C@H](c3ccc(CO)cn3)Oc3cc(OC(F)(F)F)ccc32)COc2cc3c(cc21)OC(F)(F)O3 [Example 177, (7R)-2,2-difluoro-N-[(2R,4R)-2-[5-(hydroxymethyl)pyridin-2-yl]-7-(trifluoromethoxy)-3,4-dihydro-2H-1-benzopyran-4-yl]-7-methyl-6,7-dihydro-2H-furo[2,3-f][1,3]benzodioxole-7-carboxamide] | 90 | 127 | 13 | 99 |  |  |  |
| COc1ccc2c(c1)O[C@@H](c1cnc(C(=O)O)cn1)C[C@H]2NC(=O)[C@@]1(C)COc2cc3c(cc21)OC(F)(F)O3 [Example 144, 5-[(2R,4R)-4-{[(7R)-2,2-difluoro-7-methyl-6,7-dihydro-2H-furo[2,3-f][1,3]benzodioxole-7-carbonyl]amino}-7-methoxy-3,4-dihydro-2H-1-benzopyran-2-yl]pyrazine-2-carboxylic acid] | 1330 | 157 | 550 | 78 |  |  |  |
| COc1ccc2c(c1)O[C@@H](c1cnc(C(O)CO)cn1)C[C@H]2NC(=O)[C@@]1(C)COc2cc3c(cc21)OC(F)(F)O3 (stereo partly drawn) [Example 175, (7R)—N-{(2R,4R)-2-[5-(1,2-dihydroxyethyl)pyrazin-2-yl]-7-methoxy-3,4-dihydro-2H-1-benzopyran-4-yl}-2,2-difluoro-7-methyl-6,7-dihydro-2H-furo[2,3-f][1,3]benzodioxole-7-carboxamide] | 220 | 139 | 43 | 107 |  |  |  |
| C[C@]1(C(=O)Nc2cc3cc(C4(CO)CC4)n(C[C@@H](O)CO)c3cc2F)COc2cc3c(cc21)OC(F)(F)O3 [Example 136, (7R)—N-{1-[(2R)-2,3-dihydroxypropyl]-6-fluoro-2-[1-(hydroxymethyl)cyclopropyl]-1H-indol-5-yl}-2,2-difluoro-7-methyl-6,7-dihydro-2H-furo[2,3-f][1,3]benzodioxole-7-carboxamide] | 910 | 99 | 745 | 48 |  |  |  |
| Cc1ccc(NC(=O)C2(C)CCc3c2ccc2c3OCO2)cc1-c1cccc(C(=O)O)c1 (stereo not drawn) [Example 36, 2′-methyl-5′-[(6-methyl-7,8-dihydro-2H,6H-indeno[4,5-d][1,3]dioxole-6-carbonyl)amino][1,1′-biphenyl]-3-carboxylic acid] | 1240 | 79 |  |  |  |  | 77 |
| C[C@]1(C(=O)N[C@@H]2C[C@H]([C@H]3CC[C@@H](C(=O)O)CC3)Oc3cc(OC(F)(F)F)ccc32)COc2cc3c(cc21)OC(F)(F)O3 [Example 162, cis-4-[(2R,4R)-4-{[(7R)-2,2-difluoro-7-methyl-6,7-dihydro-2H-furo[2,3-f][1,3]benzodioxole-7-carbonyl]amino}-7-(trifluoromethoxy)-3,4-dihydro-2H-1-benzopyran-2-yl]cyclohexane-1-carboxylic acid] | 712 | 120 | 20 | 86 |  |  |  |
